Series [1] deals with gastrointestinal tract, biliary tract, ureter and uterus. Conditions: cited from earlier work.
Series [2] concerns muscarinic receptors. Format: binding, rabbit (New Zealand White). The following applies: at a concentration of 1.0 × 10^-5 M; rabbit lung homogenate, 0.1 nM [3H]QNB, 37° C., 60 min.

Structures can show the parent of a compound that is named as a salt.

With `CCN(CC)CCSC(=O)C(c1ccccc1)c1ccccc1` [Thiphenamil hydrochloride], in series [1] (in vivo), the “decrease spasm of the gastrointestinal tract, biliary tract, ureter and uterus” value was “decrease spasm of the gastrointestinal tract, biliary tract, ureter and uterus”. Also, in series [1] (salivary and sweat glands, GI glands, the eye or the cardiovascular system), the atropinic side effects entry is given as “without producing characteristic atropinic side effects”.

With `CCN(CC)CCSC(=O)c1ccc(C(C)(C)C)cc1` [4-t-butyl-benzoyl-thio-S-(2-diethylaminoethyl)-ester.HCl], the “% inhibition of 3H[QNB] binding” value in series [2] was 21%.

Values taken from patent publication US4652649A, “Anti-spasmodic agents having a ring in the main chain” (United Pharmaceuticals, Inc., priority 1985, dated 1987).
